# In patent US11460474B2, “Marker for statin treatment stratification in heart failure” (Roche Diagnostics Operations, Inc., priority 2013, dated 2022):
# How the values were obtained:
# [1] = tested on: patient with heart failure; test: Case examples: statin therapy started after biomarker determination in heart failure patients; details: person
# Protocol: PlGF is determined in a plasma sample obtained from the patient. The PlGF value is above 22 pg/mL. The physician prescribes atorvastatin 20 mg/d and closely monitors creatine kinase to exclude myopathy.
# patients with CHF = details: rosuvastatin 10 mg daily, CORONA and GISSI-HF trials; cited from earlier work
smiles,measurement,setting,value
"CC(C)c1c(C(=O)Nc2ccccc2)c(-c2ccccc2)c(-c2ccc(F)cc2)n1CC[C@@H](O)C[C@@H](O)CC(=O)O [atorvastatin, Atorvastatin]",outcome (death or hospitalization),"[1]; NYHA class III heart failure, prior myocardial infarction, PlGF above 22 pg/mL, atorvastatin 20 mg/d, next 1.5 years",remains stable with a good outcome
same,outcome (death or hospitalization),"[1]; class C heart failure, no CAD, GDF-15 above 3800 pg/mL, atorvastatin 10 mg/d, next 16 months",remains stable with a good outcome
"CC(C)c1nc(N(C)S(C)(=O)=O)nc(-c2ccc(F)cc2)c1/C=C/[C@@H](O)C[C@@H](O)CC(=O)O [rosuvastatin, Rosuvastatin]",effect of statin treatment on primary end point,patients with CHF,failed to demonstrate a beneficial effect
